Some targets named below: human CYP2C9 (Homo sapiens, UniProt P11712); human CYP2C19 (Homo sapiens, UniProt P33261); human CYP2D6 (Homo sapiens, UniProt P10635); CYP3A4 (Homo sapiens, UniProt P08684).
In data set [1] the target is Photinus pyralis (firefly) luciferase (Photinus pyralis, UniProt P08659). Kind of data set: biochemical. Type of data set: biochemical.
Another data set has as its target T1, human CYP1A2 (Homo sapiens, UniProt P05177).
T1 sequence (P05177 1-516): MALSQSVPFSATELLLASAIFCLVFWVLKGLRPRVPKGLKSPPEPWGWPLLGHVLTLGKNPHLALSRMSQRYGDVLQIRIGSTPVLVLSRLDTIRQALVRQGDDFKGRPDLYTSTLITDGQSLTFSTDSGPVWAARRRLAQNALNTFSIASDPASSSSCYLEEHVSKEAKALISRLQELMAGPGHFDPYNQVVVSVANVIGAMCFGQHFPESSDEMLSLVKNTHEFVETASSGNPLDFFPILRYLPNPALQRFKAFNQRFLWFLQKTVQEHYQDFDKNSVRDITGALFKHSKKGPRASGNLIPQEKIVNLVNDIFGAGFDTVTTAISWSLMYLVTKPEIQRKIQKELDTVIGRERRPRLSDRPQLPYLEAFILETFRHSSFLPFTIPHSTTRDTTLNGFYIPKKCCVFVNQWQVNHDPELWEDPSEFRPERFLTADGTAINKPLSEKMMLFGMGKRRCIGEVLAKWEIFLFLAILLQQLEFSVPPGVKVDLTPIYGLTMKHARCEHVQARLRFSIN

The mark [2] stands for this setting: read-out: Luciferase IC50 (half-maximal inhibitory concentration).

SMILES strings stand for the structures. Like-named read-outs stand apart in the source and are kept apart here.

human CYP2C19, sequence (P33261 whole entry): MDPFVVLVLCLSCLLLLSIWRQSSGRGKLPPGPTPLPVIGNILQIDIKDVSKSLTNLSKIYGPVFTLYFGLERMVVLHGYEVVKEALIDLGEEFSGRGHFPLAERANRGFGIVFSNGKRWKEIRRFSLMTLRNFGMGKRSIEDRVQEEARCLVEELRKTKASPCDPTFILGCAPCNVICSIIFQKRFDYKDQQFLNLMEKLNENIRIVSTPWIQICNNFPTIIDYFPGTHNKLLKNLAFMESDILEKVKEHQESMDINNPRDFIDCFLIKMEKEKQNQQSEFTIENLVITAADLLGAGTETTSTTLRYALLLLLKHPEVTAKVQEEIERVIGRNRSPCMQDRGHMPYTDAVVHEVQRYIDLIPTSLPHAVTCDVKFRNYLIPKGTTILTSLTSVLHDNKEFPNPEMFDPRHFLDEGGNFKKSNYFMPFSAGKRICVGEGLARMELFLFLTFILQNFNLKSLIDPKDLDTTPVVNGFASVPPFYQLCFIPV
Photinus pyralis (firefly) luciferase, sequence (P08659 whole entry): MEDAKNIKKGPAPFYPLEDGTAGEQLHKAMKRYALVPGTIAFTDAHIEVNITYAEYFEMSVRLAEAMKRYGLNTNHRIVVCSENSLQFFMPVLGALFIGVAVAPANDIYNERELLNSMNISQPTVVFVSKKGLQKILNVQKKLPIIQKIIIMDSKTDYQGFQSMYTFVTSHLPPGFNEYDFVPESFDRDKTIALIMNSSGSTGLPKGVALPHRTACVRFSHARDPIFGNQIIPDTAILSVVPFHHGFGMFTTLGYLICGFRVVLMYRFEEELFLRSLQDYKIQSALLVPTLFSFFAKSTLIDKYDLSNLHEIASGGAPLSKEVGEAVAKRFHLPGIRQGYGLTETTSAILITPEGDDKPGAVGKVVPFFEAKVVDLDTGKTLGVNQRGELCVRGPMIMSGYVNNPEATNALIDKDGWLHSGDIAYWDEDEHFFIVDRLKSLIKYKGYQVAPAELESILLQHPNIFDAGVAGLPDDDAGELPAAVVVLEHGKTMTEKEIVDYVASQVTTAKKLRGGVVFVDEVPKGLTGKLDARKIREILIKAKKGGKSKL
human CYP2C9, sequence (P11712 whole entry): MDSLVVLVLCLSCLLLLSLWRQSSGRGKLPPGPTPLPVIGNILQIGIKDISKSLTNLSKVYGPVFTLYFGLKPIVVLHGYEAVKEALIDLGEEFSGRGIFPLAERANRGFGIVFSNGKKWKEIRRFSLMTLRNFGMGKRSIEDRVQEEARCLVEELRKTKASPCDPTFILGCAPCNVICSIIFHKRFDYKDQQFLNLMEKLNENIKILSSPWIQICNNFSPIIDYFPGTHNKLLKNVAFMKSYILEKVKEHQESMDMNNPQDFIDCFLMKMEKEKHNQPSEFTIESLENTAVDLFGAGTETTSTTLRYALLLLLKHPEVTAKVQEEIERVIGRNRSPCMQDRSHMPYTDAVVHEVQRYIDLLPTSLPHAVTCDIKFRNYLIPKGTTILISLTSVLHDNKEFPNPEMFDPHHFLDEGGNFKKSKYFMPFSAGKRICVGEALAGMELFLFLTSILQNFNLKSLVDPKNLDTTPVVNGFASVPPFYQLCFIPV
human CYP2D6, sequence (P10635 whole entry): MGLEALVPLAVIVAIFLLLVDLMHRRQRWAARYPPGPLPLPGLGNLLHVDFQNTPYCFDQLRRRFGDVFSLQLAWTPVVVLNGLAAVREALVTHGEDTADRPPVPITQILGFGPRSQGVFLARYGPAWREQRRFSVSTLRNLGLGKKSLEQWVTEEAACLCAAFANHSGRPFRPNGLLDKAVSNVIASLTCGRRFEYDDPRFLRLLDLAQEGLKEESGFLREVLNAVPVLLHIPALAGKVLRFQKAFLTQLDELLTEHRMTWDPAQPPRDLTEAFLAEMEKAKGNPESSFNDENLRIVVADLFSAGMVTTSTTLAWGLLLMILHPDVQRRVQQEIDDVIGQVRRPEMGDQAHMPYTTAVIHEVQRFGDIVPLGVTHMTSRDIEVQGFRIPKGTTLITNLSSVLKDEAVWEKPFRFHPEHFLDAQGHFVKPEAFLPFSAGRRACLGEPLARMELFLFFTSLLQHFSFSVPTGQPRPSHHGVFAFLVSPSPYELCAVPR
CYP3A4, sequence (P08684 whole entry): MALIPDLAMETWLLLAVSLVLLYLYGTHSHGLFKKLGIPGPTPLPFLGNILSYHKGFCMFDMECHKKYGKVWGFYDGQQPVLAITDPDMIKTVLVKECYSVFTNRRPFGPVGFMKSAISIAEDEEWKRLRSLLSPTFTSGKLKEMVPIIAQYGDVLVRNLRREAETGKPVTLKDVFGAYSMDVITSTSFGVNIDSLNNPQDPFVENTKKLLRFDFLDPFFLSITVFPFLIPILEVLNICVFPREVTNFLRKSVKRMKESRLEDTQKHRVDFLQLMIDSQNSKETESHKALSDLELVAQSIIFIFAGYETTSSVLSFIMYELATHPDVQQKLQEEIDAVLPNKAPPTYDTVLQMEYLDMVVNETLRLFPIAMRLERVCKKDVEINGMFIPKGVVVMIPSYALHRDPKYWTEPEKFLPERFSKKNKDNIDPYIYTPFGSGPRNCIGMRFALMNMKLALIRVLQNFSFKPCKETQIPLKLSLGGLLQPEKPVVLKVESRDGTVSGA

For `CC(=C(CCOC(=O)C(C)C)SSC(CCOC(=O)C(C)C)=C(C)N(C=O)Cc1cnc(C)nc1N)N(C=O)Cc1cnc(C)nc1N` (stereo in doubt) [Bisibutiamine], in data set [1], the “Luciferase IC50 (half-maximal inhibitory concentration)” value is recorded as “Inactive”. Moreover, the “CYP1A2 IC50 (half-maximal inhibitory concentration)” value at human CYP1A2 is “Inactive”. In addition, at human CYP2C9, the “CYP2C9 IC50 (half-maximal inhibitory concentration)” value is “Inactive”. The “CYP2C19 IC50 (half-maximal inhibitory concentration)” value on human CYP2C19 is “Inactive”. Besides, the “CYP2D6 IC50 (half-maximal inhibitory concentration)” value on human CYP2D6 is given as “Inactive”. The same compound gave an IC50 against CYP3A4 of 0.36 µM.
For `N=C(Nc1ccccc1)Nc1ccccc1` [1,3-Diphenylguanidine], in data set [1], the “Luciferase IC50” value was “Inactive”. Besides, the IC50 is 30.8 µM at human CYP1A2; 53.1 µM on human CYP2C9; 45 µM on human CYP2C19; 0.2 µM on human CYP2D6; 51.9 µM against CYP3A4.
`CC[N+]1(C)CCCC1.[I-]` [1-Ethyl-1-methylpyrrolidinium iodide]: the “Luciferase IC50” value in data set [1] is “Inactive”. In addition, the IC50 turned out to be 75.5 µM against human CYP1A2, 26.7 µM on human CYP2C19 and 0.01 µM against human CYP2D6. In addition, at human CYP2C9, the “CYP2C9 IC50” value is given as “Inactive”. Besides, the “CYP3A4 IC50” value at CYP3A4 is recorded as “Inactive”.
As to `CCCCCCCCCCCCCCCCn1cc[n+](C)c1.[Cl-]` [1-Hexadecyl-3-methylimidazolium chloride], the “Luciferase IC50 (half-maximal inhibitory concentration)” value in data set [1] is given as “Inactive”. For the same compound, on human CYP1A2, the “CYP1A2 Efficacy (in parenthesis)” value was 69.7 ± 29.29 (-90 ± 28) % and the IC50 came out at 69.7 µM. Moreover, on human CYP2C9, the “CYP2C9 Efficacy (in parenthesis)” value is reported as 55.36 ± 23.27 (-121 ± 6) % and the IC50 amounted to 55.4 µM. Moreover, at human CYP2C19, the “CYP2C19 Efficacy (in parenthesis)” value was 52.99 ± 35.71 (-145 ± 35) % and the IC50 was determined as 53 µM. For the same compound, at human CYP2D6, the “CYP2D6 Efficacy (in parenthesis)” value is recorded as 0.38 ± 0.13 (-102 ± 3) % and the IC50 is 0.38 µM. For the same compound, on CYP3A4, the “CYP3A4 Efficacy (in parenthesis)” value was 63.62 ± 15.46 (-70 ± 19) % and the IC50 was determined as 63.6 µM.
In the case of `O=C(Nc1ccccc1SSc1ccccc1NC(=O)c1ccccc1)c1ccccc1` [2,2'-Dibenzoylaminodiphenyl disulfide], the “Luciferase Efficacy (in parenthesis)” value in data set [1] is 3.42 ± 1.53 (-57 ± 5) %. Further, the IC50 in data set [1] (setting [2]) was determined as 3.42 µM. Also, on human CYP1A2, the “CYP1A2 Efficacy (in parenthesis)” value is 6.73 ± 1.52 (-88 ± 2) % and the IC50 worked out at 6.73 µM. On human CYP2C9, the “CYP2C9 Efficacy (in parenthesis)” value was 0.57 ± 0.07 (-99 ± 3) % and the IC50 turned out to be 0.57 µM. On human CYP2C19, the “CYP2C19 Efficacy (in parenthesis)” value is listed as 3.94 ± 2.15 (-155 ± 9) % and the IC50 worked out at 3.94 µM. In addition, at human CYP2D6, the “CYP2D6 Efficacy (in parenthesis)” value is recorded as 37.5 ± 45.35 (15 ± 47) % and the “CYP2D6 IC50 (half-maximal inhibitory concentration)” value is 37.5 ± 45.35 (15 ± 47) µM. At CYP3A4, the “CYP3A4 Efficacy (in parenthesis)” value is recorded as 3.23 ± 1.25 (-75 ± 7) % and the IC50 worked out at 3.23 µM.
On to `OCC(c1ccc(Cl)cc1)c1ccc(Cl)cc1` [2,2-Bis(4-chlorophenyl)ethanol], for which the “Luciferase IC50 (half-maximal inhibitory concentration)” value in data set [1] is recorded as “Inactive”. On human CYP1A2, the “CYP1A2 Efficacy” value is 34.28 ± 2.23 (-78 ± 6) %, the “CYP1A2 Efficacy (in parenthesis)” value is 34.28 ± 2.23 (-78 ± 6) % and the IC50 came to 34.3 µM. In addition, at human CYP2C9, the AC50 (as a rule, the concentration at which the activity in the assay is half-maximal) worked out at 11.7 µM; the “CYP2C9 Efficacy” value is 11.71 ± 0.79 (-108 ± 10) %; the “CYP2C9 Efficacy (in parenthesis)” value is given as 11.71 ± 0.79 (-108 ± 10) %. On human CYP2C19, the “CYP2C19 Efficacy” value is 0.14 ± 0.07 (-161 ± 31) %, the “CYP2C19 Efficacy (in parenthesis)” value was 0.14 ± 0.07 (-161 ± 31) % and the IC50 is 0.14 µM. At human CYP2D6, the “CYP2D6 IC50 (half-maximal inhibitory concentration)” value is on record as “Inactive”. Further, on CYP3A4, the AC50 came to 18.7 µM, the “CYP3A4 Efficacy (in parenthesis)” value was 18.71 ± 6.46 (64 ± 10) % and the “CYP3A4 IC50 (half-maximal inhibitory concentration)” value is 18.71 ± 6.46 (64 ± 10) µM.
As to `CCOc1cc(OCC)c(C(C)=O)cc1OCC` [2,4,5-Triethoxyacetophenone], the “Luciferase IC50 (half-maximal inhibitory concentration)” value in data set [1] was “Inactive”. The IC50 was 0.87 µM against human CYP1A2, 65 µM against human CYP2C19, 69.8 µM on human CYP2D6 and 58.5 µM at CYP3A4. Moreover, the “CYP2C9 Efficacy” value at human CYP2C9 was 37.98 ± 5.23 (-54 ± 11) %.
On to `Cc1cc(N=Nc2ccccc2C)ccc1N` [2-Amino-5-azotoluene], for which the IC50 in data set [1] (read-out: Luciferase IC50) was found to be 5.66 µM; against human CYP1A2 it was 0.99 µM; on human CYP2C19, 6.21 µM; on human CYP2D6, 45.4 µM; at CYP3A4, 2.53 µM. Besides, the “CYP2C9 Efficacy” value at human CYP2C9 is 5.45 ± 1.48 (-102 ± 10) %.
For `Nc1nc2ccc([N+](=O)[O-])cc2s1` [2-Amino-6-nitrobenzothiazole], the IC50 in data set [1] (read-out: Luciferase IC50) is 66.4 µM; on human CYP1A2, 9.75 µM; against human CYP2C19, 35.7 µM; against human CYP2D6, 44 µM; on CYP3A4 it was 60.6 µM. Besides, the “CYP2C9 Efficacy” value at human CYP2C9 is given as 59.75 ± 4.61 (-39 ± 3) %.
As to `Clc1ccc2c(c1)Nc1ccccc1S2` [2-Chlorophenothiazine], the “Luciferase IC50 (half-maximal inhibitory concentration)” value in data set [1] was “Inactive”. For the same compound, the IC50 was found to be 0.44 µM against human CYP1A2 and 7.85 µM on human CYP2C19. For the same compound, the “CYP2C9 Efficacy” value on human CYP2C9 is 11.4 ± 3.88 (-60 ± 10) %. Further, on human CYP2D6, the “CYP2D6 IC50 (half-maximal inhibitory concentration)” value was “Inactive”. For the same compound, the “CYP3A4 IC50 (half-maximal inhibitory concentration)” value at CYP3A4 is on record as “Inactive”.
For `NNc1nc(-c2ccccc2)cs1` [2-Hydrazino-4-phenylthiazole], the IC50 came to 33.9 µM in data set [1] (read-out: Luciferase IC50); 0.75 µM against human CYP1A2; 8.86 µM against human CYP2C9; 8.06 µM against human CYP2C19; 53.2 µM against human CYP2D6; 14 µM against CYP3A4.
Take `COc1cc2c(cc1N)oc1ccccc12` [2-Methoxy-3-aminodibenzofuran]: the IC50 turned out to be 54.6 µM in data set [1] (setting [2]); 0.63 µM against human CYP1A2; 6.23 µM against human CYP2C9; 3.95 µM against human CYP2C19; 7.61 µM against human CYP2D6; 8.5 µM against CYP3A4.
`Cc1cc(-c2cc(C)c(N)c(C)c2)cc(C)c1N` [3,3',5,5'-Tetramethylbenzidine]: in data set [1], the “Luciferase IC50” value is recorded as “Inactive”. Besides, the IC50 against human CYP1A2 is 0.24 µM; against human CYP2C9, 21.2 µM; on human CYP2C19 it was 12.1 µM; against human CYP2D6 it was 16.2 µM; on CYP3A4 it was 28.1 µM.
As for `COc1cc(-c2ccc(N)c(OC)c2)ccc1N.Cl.Cl` [3,3'-Dimethoxybenzidine dihydrochloride], the IC50 in data set [1] (setting [2]) was determined as 60.4 µM; on human CYP1A2 it was 0.82 µM; at human CYP2C9 it was 8.91 µM; against human CYP2C19 it was 7.39 µM; at human CYP2D6, 30.4 µM; against CYP3A4 it was 1.71 µM.
For the compound `CC(=O)c1ccc2ccc3ccccc3c2c1` [3-Acetylphenanthrene], the “Luciferase Efficacy (in parenthesis)” value in data set [1] was 32.81 ± 2.22 (-56 ± 6) %. Besides, the IC50 in data set [1] (setting [2]) stood at 32.8 µM; at human CYP1A2 it was 1.04 µM; against human CYP2C9 it was 11.6 µM; against human CYP2C19, 22.4 µM; against human CYP2D6, 88.9 µM; against CYP3A4 it was 48.5 µM. The “CYP1A2 Efficacy (in parenthesis)” value at human CYP1A2 is listed as 1.04 ± 0.13 (-97 ± 1) %. The “CYP2C9 Efficacy (in parenthesis)” value at human CYP2C9 was 11.64 ± 0.79 (-93 ± 2) %. The “CYP2C19 Efficacy (in parenthesis)” value on human CYP2C19 is given as 22.42 ± 2.58 (-138 ± 3) %. Besides, the “CYP2D6 Efficacy (in parenthesis)” value at human CYP2D6 was 88.85 ± 0 (-46 ± 10) %. For the same compound, at CYP3A4, the “CYP3A4 Efficacy (in parenthesis)” value is reported as 48.54 ± 19.2 (-66 ± 4) %.
For the compound `O=C(C(=O)c1ccc(Br)cc1)c1ccc(Br)cc1` [4,4'-Dibromobenzil], the “Luciferase IC50 (half-maximal inhibitory concentration)” value in data set [1] was “Inactive”. Further, on human CYP1A2, the “CYP1A2 Efficacy (in parenthesis)” value was 9.92 ± 0 (-37 ± 3) % and the IC50 is 9.92 µM. For the same compound, on human CYP2C9, the “CYP2C9 IC50 (half-maximal inhibitory concentration)” value was “Inactive”. Besides, on human CYP2C19, the “CYP2C19 Efficacy (in parenthesis)” value was 0.71 ± 0.31 (-137 ± 6) % and the IC50 stood at 0.71 µM. In addition, the “CYP2D6 IC50 (half-maximal inhibitory concentration)” value on human CYP2D6 was “Inactive”. The “CYP3A4 IC50 (half-maximal inhibitory concentration)” value on CYP3A4 is reported as “Inactive”.
As to `c1cc(CCCc2ccncc2)ccn1` [4,4'-Propane-1,3-diyldipyridine], in data set [1], the “Luciferase IC50” value is recorded as “Inactive”. Besides, the IC50 at human CYP1A2 came to 1.54 µM; at human CYP2C9, 5.05 µM; on human CYP2C19, 1.5 µM; against human CYP2D6 it was 1.54 µM; at CYP3A4 it was 0.87 µM.
With `Cc1cccc2c1cc1ccc3cccc4ccc2c1c34` [7-Methylbenzo(a)pyrene], in data set [1], the “Luciferase IC50” value is recorded as “Inactive”. Also, at human CYP1A2, the AC50 was 0.16 µM and the IC50 was 0.16 µM. Also, on human CYP2C9, the “CYP2C9 IC50” value was “Inactive”. For the same compound, the “CYP2C19 IC50” value at human CYP2C19 was “Inactive”. Moreover, the “CYP2D6 IC50” value at human CYP2D6 was “Inactive”. Besides, at CYP3A4, half-maximal activity (AC50) was put at 73 µM and the “CYP3A4 IC50” value is 72.98 ± 8.39 (145 ± 22) µM.

The record behind these values is article PMC12155096 (International Journal of Molecular Sciences, 2025).
